Data as given in patent publication US9834558B2, “Substituted bridged urea analogs as sirtuin modulators” (GLAXOSMITHKLINE LLC, priority 2013, dated 2017).
Like-named read-outs stand apart in the source and are kept apart here. Each block holds one molecule with its values, some of them ahead of it.

Molecular target: T1, SIRT1 (Homo sapiens, UniProt Q96EB6)
T1 sequence (Q96EB6 1-747): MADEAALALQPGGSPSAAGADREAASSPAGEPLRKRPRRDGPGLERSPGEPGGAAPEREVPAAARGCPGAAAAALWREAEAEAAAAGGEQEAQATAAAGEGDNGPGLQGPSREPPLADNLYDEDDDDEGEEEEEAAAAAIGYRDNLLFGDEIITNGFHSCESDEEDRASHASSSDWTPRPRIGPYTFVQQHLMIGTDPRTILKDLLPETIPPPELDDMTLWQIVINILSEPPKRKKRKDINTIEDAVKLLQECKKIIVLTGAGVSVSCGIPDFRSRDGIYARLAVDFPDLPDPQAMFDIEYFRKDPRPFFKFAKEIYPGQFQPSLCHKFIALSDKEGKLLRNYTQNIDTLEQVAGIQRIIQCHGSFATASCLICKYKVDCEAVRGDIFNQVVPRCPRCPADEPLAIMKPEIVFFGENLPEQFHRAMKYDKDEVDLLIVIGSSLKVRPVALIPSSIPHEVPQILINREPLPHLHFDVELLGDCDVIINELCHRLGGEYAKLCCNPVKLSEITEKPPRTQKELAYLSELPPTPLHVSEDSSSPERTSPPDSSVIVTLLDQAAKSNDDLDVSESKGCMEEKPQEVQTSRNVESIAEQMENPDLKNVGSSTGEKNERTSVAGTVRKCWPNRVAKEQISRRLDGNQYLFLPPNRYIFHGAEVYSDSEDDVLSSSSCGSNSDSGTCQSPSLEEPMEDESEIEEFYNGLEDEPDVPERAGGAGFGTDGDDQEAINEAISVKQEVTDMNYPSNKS
Test: Trp mass spectrometry assay of SIRT1 activation
Assay type: biochemical
Conditions: for TRP Activity (EC1.5): EC1.5 = concentration that results in 150% activation of SIRT1
Procedure, shortened: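 N-terminal His-tagged human SIRT1 (10 nM, E. coli BL21(DE3)) with 0.5 μM Ac-RHKK(Ac)W-NH2 peptide and 120 μM βNAD+, 25 min at 25 °C in HEPES pH 7.5, formic acid stop. OAADPR or deacetylated peptide quantified by mass spectrometry; EC1.5 (50% activity increase over control) and Percent Maximum Activation reported.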

[1] = Trp peptide assay, maximum activity relative to control (100%), read-out: TRP MAX RESP (percent maximum fold activation)
[2] = concentration giving 150% activation of SIRT1, Trp peptide substrate
[3] = Trp mass spectrometry assay, EC1.5 = concentration of test compound that results in 150% activation of SIRT1
[4] = Trp mass spectrometry assay, concentration of test compound giving 150% activation of SIRT1
[5] = Trp peptide substrate, concentration giving 150% activation of SIRT1

- Tryp AVG EC1.5 (μM) [2]: A (A (EC1.5<1 μM))
SMILES: CCC(=O)N1CCC(c2cccc(NC(=O)N3c4nc(-c5cccc(C(F)(F)F)c5)ccc4N4CC[C@H]3C4)c2)C1 (stereo partly shown) [Example 636]

- Tryp AVG EC1.5 (μM) [2]: A (A (EC1.5<1 μM))
SMILES: C#CCOc1cccc(NC(=O)N2c3nc(-c4cccc(C5(C(F)(F)F)N=N5)c4)ccc3N3CC[C@H]2C3)c1 [Example 797]

- Tryp AVG EC1.5 (μM) [4]: A (A (EC1.5<1 μM))
SMILES: COc1cc(NC(=O)N2c3nc(-c4cncc(F)c4)ccc3N3CCC[C@H]2C3)ncn1 [Example 404]

- Tryp AVG EC1.5 (μM) [3]: B (B (EC1.5 1-25 μM))
SMILES: O=C(Nc1cncc(F)c1)N1c2nc(-c3cncc(Cl)c3)ccc2N2CCC1CC2 [Example 545]

- Tryp AVG EC1.5 (μM) [3]: A (A (EC1.5<1 μM))
SMILES: O=C(Nc1ccc(F)cn1)N1c2nc(-c3ccnc(N4CCC(F)(F)C4)c3)ccc2N2CC[C@H]1C2 [Example 425]

- TRP Activity (EC1.5) (Trp peptide assay): B (B (EC1.5 1-25 μM))
- Emax [1]: > 150%
SMILES: CC[C@@H]1CN(c2ccc3c(n2)N(C(=O)Nc2cnccn2)[C@H]2CCN3C2)CCO1 [(9S)-5-[(2R)-2-ethylmorpholin-4-yl]-N-(pyrazin-2-yl)-1,6,8-triazatricyclo[7.2.1.0^{2,7}]dodeca-2(7),3,5-triene-8-carboxamide]

- TRP Activity (EC1.5) (Trp peptide assay): A (A (EC1.5<1 μM))
- Emax [1]: > 150%
SMILES: O=C(Nc1ccccn1)N1c2nc(-c3ccnc(C(F)(F)F)c3)ccc2N2CCC[C@H]1C2 [(9S)-N-(pyridin-2-yl)-5-[2-(trifluoromethyl)pyridin-4-yl]-1,6,8-triazatricyclo[7.3.1.0 {2,7}]trideca-2(7),3,5-triene-8-carboxamide]

- Tryp AVG EC1.5 (μM) [5]: A (A (EC1.5<1 μM))
SMILES: CCn1ncc2c(NC(=O)N3c4nc(-c5cccc(C(F)(F)F)c5)ccc4N4CC[C@H]3C4)cccc21 [81 (9)]

- Tryp AVG EC1.5 (μM) [2]: A (A (EC1.5<1 μM))
SMILES: NCc1cccc(NC(=O)N2c3nc(-c4cccc(C(F)(F)F)c4)ccc3N3CCC[C@H]2C3)c1 [Example 757]

- Tryp AVG EC1.5 (μM) [5]: B (B (EC1.5 1-25 μM))
SMILES: O=C(Nc1ccncn1)N1c2nc(C3CCCC(C(F)(F)F)C3)ccc2N2CC[C@H]1C2 (stereo partly shown) [Example 98]

- Tryp AVG EC1.5 (μM) [4]: B (B (EC1.5 1-25 μM))
SMILES: COc1cc(NC(=O)N2c3nc(-c4cccc(C(F)(F)F)n4)ccc3N3CC[C@H]2C3)ncn1 [Example 339]

- Tryp AVG EC1.5 (μM) [3]: B (B (EC1.5 1-25 μM))
SMILES: O=C1CN2C[C@H]1N(C(=O)Nc1ccccn1)c1nc(-c3cccc(C(F)(F)F)c3)ccc12 [Example 620]

- Tryp AVG EC1.5 (μM) [2]: B (B (EC1.5 1-25 μM))
SMILES: O=C(Nc1cccnn1)N1c2nc(-c3cccc(Cl)c3)ccc2N2C[C@@H](O)[C@H]1C2 [Example 682]

- Tryp AVG EC1.5 (μM) [3]: A (A (EC1.5<1 μM))
SMILES: N#Cc1cncc(-c2ccc3c(n2)N(C(=O)Nc2ccccn2)[C@H]2CCCN3C2)c1 [Example 557]

- Tryp AVG EC1.5 (μM) [3]: B (B (EC1.5 1-25 μM))
SMILES: COc1cc(NC(=O)N2c3nc(-c4cncc(F)c4)ccc3N3CCC2CC3)nc(OC)n1 [Example 578]

- Emax (Trp peptide substrate, percent maximum fold activation of SIRT1, read-out: Tryp % Fold Act): > 150%
SMILES: O=C(Nc1cc(F)ccn1)N1c2nc(-c3cccc(OC(F)(F)F)c3)ccc2N2CC[C@H]1C2 [Compound 174]

The next lines start with the molecule.

SMILES: Cc1cc(-c2ccc3c(n2)N(C(=O)Nc2c[nH]nn2)[C@H]2CCN3C2)ccn1 [(9S)-5-(2-methylpyridin-4-yl)-N-(1H-1,2,3-triazol-4-yl)-1,6,8-triazatricyclo[7.2.1.0 {2,7}]dodeca-2(7),3,5-triene-8-carboxamide]
- TRP Activity (EC1.5) (Trp peptide assay): B (B (EC1.5 1-25 μM))
- Emax [1]: > 150%

SMILES: O=C(Nc1cnccn1)N1c2nc(-c3ccc(C(F)(F)F)nc3)ccc2N2CC[C@H]1C2 [(9S)-N-(pyrazin-2-yl)-5-[6-(trifluoromethyl)pyridin-3-yl]-1,6,8-triazatricyclo[7.2.1.0 {2,7}]dodeca-2(7),3,5-triene-8-carboxamide]
- TRP Activity (EC1.5) (Trp peptide assay): B (B (EC1.5 1-25 μM))
- Emax [1]: > 150%

SMILES: C#CCOc1cccc(NC(=O)N2c3nc(-c4ccc(C5(C(F)(F)F)N=N5)cc4)ccc3N3CC[C@H]2C3)c1 [Example 802]
- Tryp AVG EC1.5 (μM) [2]: B (B (EC1.5 1-25 μM))

SMILES: CS(=O)(=O)N1CCCN(c2ccc3c(n2)N(C(=O)Nc2ccncn2)[C@H]2CCCN3C2)CC1 [Example 433]
- Tryp AVG EC1.5 (μM) [3]: B (B (EC1.5 1-25 μM))

SMILES: CC(C)(C)OC(=O)N1CCc2ccc(NC(=O)N3c4nc(-c5cccc(C(F)(F)F)c5)ccc4N4CC[C@H]3C4)cc2C1 [Example 609]
- Tryp AVG EC1.5 (μM) [3]: B (B (EC1.5 1-25 μM))

SMILES: O=C1OC2(c3ccc(O)cc3Oc3cc(O)ccc32)c2ccc(NC(=S)NCc3cn(C4=CC(NC(=O)N5c6nc(-c7cccc(C(F)(F)F)c7)ccc6N6CC[C@H]5C6)CC=C4)nn3)cc21 (stereo partly shown) [Example 608]
- Tryp AVG EC1.5 (μM) [3]: C (C (EC1.5>25 μM))
- Emax (Trp mass spectrometry assay, percent maximum fold activation of SIRT1, read-out: Tryp % Fold Act): < 150%

SMILES: Cn1ccc(-c2ccc3c(n2)N(C(=O)Nc2cccnc2)[C@H]2CCN3C2)cc1=O [(9S)-5-(1-methyl-2-oxo-1,2-dihydropyridin-4-yl)-N-(pyridin-3-yl)-1,6,8-triazatricyclo[7.2.1.0 {2,7}]dodeca-2(7),3,5-triene-8-carboxamide]
- TRP Activity (EC1.5) (Trp peptide assay): B (B (EC1.5 1-25 μM))
- Emax [1]: > 150%

SMILES: [N-]=[N+]=Nc1cc(N=[N+]=[N-])cc(-c2ccc3c(n2)N(C(=O)Nc2ccc(F)cn2)[C@H]2CCN3C2)c1 [Example 806]
- Tryp AVG EC1.5 (μM) [2]: A (A (EC1.5<1 μM))
- Emax (percent maximum fold activation of SIRT1, Trp peptide substrate, read-out: Tryp % Fold Act): > 150%

SMILES: O=C(NC1CC1)c1ccc2c(n1)N(C(=O)Nc1ccccn1)[C@H]1CCN2C1 [(9S)-5-N-cyclopropyl-8-N-(pyridin-2-yl)-1,6,8-triazatricyclo[7.2.1.0^{2,7}]dodeca-2(7),3,5-triene-5,8-dicarboxamide]
- TRP Activity (EC1.5) (Trp peptide assay): A (A (EC1.5<1 μM))
- Emax (read-out: TRP MAX RESP (percent maximum fold activation)): > 150%

SMILES: CS(=O)(=O)c1cncc(-c2ccc3c(n2)N(C(=O)Nc2cccnn2)[C@H]2CCCN3C2)c1 [Example 380]
- Tryp AVG EC1.5 (μM) [4]: A (A (EC1.5<1 μM))

SMILES: CC(C)(C)OC(=O)NCC#Cc1cc(NC(=O)N2c3nc(-c4cccc(C(F)(F)F)c4)ccc3N3CCC[C@H]2C3)cc(-c2cnco2)c1 [Example 760]
- Tryp AVG EC1.5 (μM) [2]: A (A (EC1.5<1 μM))

SMILES: O=C(Nc1ccccn1)N1c2cc(-c3cccc(C(F)(F)F)c3)ccc2N2CC[C@H]1C2 [Example 785]
- Tryp AVG EC1.5 (μM) [2]: C (C (EC1.5>25 μM))

SMILES: O=C(Nc1cnccn1)N1c2nc(-c3ccnc(N4CC[C@H](F)C4)c3)ccc2N2CC[C@H]1C2 [Example 436]
- Tryp AVG EC1.5 (μM) [3]: A (A (EC1.5<1 μM))

SMILES: COc1cncc(NC(=O)N2c3nc(-c4ccnc(C)c4)ccc3N3CC[C@H]2C3)n1 [Example 499]
- Tryp AVG EC1.5 (μM) [3]: A (A (EC1.5<1 μM))

SMILES: O=C(Nc1cnccn1)N1c2nc(-c3cccc(Cl)c3)ccc2N2CCC1CC2 [Example 543]
- Tryp AVG EC1.5 (μM) [3]: B (B (EC1.5 1-25 μM))

SMILES: COc1cc(NC(=O)N2c3nc(-c4cncc(Cl)c4)ccc3N3CCC2CC3)nc(OC)n1 [Example 553]
- Tryp AVG EC1.5 (μM) [3]: B (B (EC1.5 1-25 μM))

SMILES: O=C(Nc1cc(-c2cnco2)ccn1)N1c2nc(-c3cncc(C(F)(F)F)c3)ccc2N2C[C@@H](O)[C@H]1C2 [Example 726]
- Tryp AVG EC1.5 (μM) [2]: B (B (EC1.5 1-25 μM))

SMILES: Cc1cc(-c2ccc3c(n2)N(C(=O)Nc2cnc(C4CC4)cn2)[C@H]2CCN3C2)ccn1 [(9S)-N-(5-cyclopropylpyrazin-2-yl)-5-(2-methylpyridin-4-yl)-1,6,8-triazatricyclo[7.2.1.0 {2,7}]dodeca-2(7),3,5-triene-8-carboxamide]
- TRP Activity (EC1.5) (Trp peptide assay): A (A (EC1.5<1 μM))
- Emax [1]: > 150%

SMILES: O=C(Nc1ccccn1)N1c2nc(-c3ccnc(N4CCC(C(F)(F)F)C4)c3)ccc2N2CC[C@H]1C2 (stereo partly shown) [Example 367]
- Tryp AVG EC1.5 (μM) [4]: A (A (EC1.5<1 μM))

SMILES: O=C(Nc1ccc(F)cn1)N1c2nc(N3CCCC(C(F)(F)F)C3)ccc2N2CCC[C@@H]1C2 (stereo partly shown) [Example 362]
- Tryp AVG EC1.5 (μM) [4]: C (C (EC1.5>25 μM))

SMILES: O=C(Nc1ccncn1)N1c2nc(N3CCCNCC3)ccc2N2CCC[C@H]1C2 [Example 420]
- Tryp AVG EC1.5 (μM) [3]: C (C (EC1.5>25 μM))

SMILES: C#CCNc1nccc(NC(=O)N2c3nc(-c4cccc(C5(C(F)(F)F)N=N5)c4)ccc3N3CC[C@H]2C3)n1 [Example 804]
- Tryp AVG EC1.5 (μM) [2]: A (A (EC1.5<1 μM))

SMILES: O=C(Nc1cnccn1)N1c2nc(-c3cnn(C4CC4)c3)ccc2N2CC[C@H]1C2 [(9S)-5-(1-cyclopropyl-1H-pyrazol-4-yl)-N-(pyrazin-2-yl)-1,6,8-triazatricyclo[7.2.1.0 {2,7}]dodeca-2(7),3,5-triene-8-carboxamide]
- TRP Activity (EC1.5) (Trp peptide assay): A (A (EC1.5<1 μM))
- Emax [1]: > 150%
